Laboratory results from ChEMBL document CHEMBL3046588, “Design, synthesis, and in vitro evaluation of cytotoxic activity of new substituted 1,4-benzoquinones and hydroquinones” (2007).

Legend:
Assay type in all cases: functional
[1] = Cytotoxicity against Homo sapiens (human) breast cancer cells after 48 hr by SRB assay; settings: Cancer cell lines; for LC50 (concentration giving 50% net cell kill): pooled result: one value given for 9 cell lines, strains, targets or settings
SR = test: Cytotoxicity against Homo sapiens (human) SR cells after 48 hr by SRB assay
[2] = Cytotoxicity against Homo sapiens (human) prostate cancer cells after 48 hr by SRB assay; settings: Cancer cell lines
[3] = Cytotoxicity against Homo sapiens (human) renal cancer cells after 48 hr by SRB assay; settings: Cancer cell lines
[4] = Cytotoxicity against Homo sapiens (human) ovarian cancer cells after 48 hr by SRB assay; settings: Cancer cell lines
[5] = Cytotoxicity against Homo sapiens (human) CNS cancer cells after 48 hr by SRB assay; settings: Cancer cell lines
[6] = Cytotoxicity against Homo sapiens (human) melanoma cellsafter 48 hr by SRB assay; settings: Melanoma cell
[7] = Cytotoxicity against Homo sapiens (human) colon cancer cells after 48 hr by SRB assay; settings: Cancer cell lines
[8] = Cytotoxicity against Homo sapiens (human) leukemia cells after 48 hr by SRB assay; settings: Leukemia cell
[9] = Cytotoxicity against Homo sapiens (human) non-small cell lung cancer cells after 48 hr by SRB assay; settings: Cancer cell lines
SF-268 = test: Cytotoxicity against Homo sapiens (human) SF268 cells assessed as cellular growth after 48 hr by Alamar blue assay; parameters: concentration or dose not given beside the values
MCF7 = test: Cytotoxicity against Homo sapiens (human) MCF7 cells assessed as cellular growth after 48 hr by Alamar blue assay; parameters: concentration or dose not given beside the values
NCI-H460 = test: Cytotoxicity against Homo sapiens (human) NCI-H460 cells assessed as cellular growth after 48 hr by Alamar blue assay; parameters: concentration or dose not given beside the values

Row | SMILES | GI50 [1] | TGI [1] | LC50 (concentration giving 50% net cell kill) [1] | GI50 [2] | TGI [2] | GI50 [3] | TGI [3] | GI50 [4] | TGI [4] | GI50 [5] | TGI [5] | GI50 [6] | TGI [6] | GI50 [7] | TGI [7] | GI50 [8] | TGI [8] | GI50 [9] | TGI [9] | Activity (SF-268) | other results
1 | Cc1nn(-c2ccc(Br)cc2)c(C)c1CC(=O)c1cc(O)ccc1O | 11.4 µM | 36.3 µM | 48.8 µM | 12.4 µM | 47.3 µM | 12 µM | 36.7 µM | 14.1 µM | 42.4 µM | 11.3 µM | 29.8 µM | 13.1 µM | 31.4 µM | 11.2 µM | 42.1 µM | 7.71 µM | 46.6 µM | 12 µM | 32.9 µM | <32% | GI50 (SR): 0.91 µM; Activity (MCF7): <32%; Activity (NCI-H460): <32%
2 | COc1ccc(OC)c(-c2cc(-c3ccc(Cl)cc3)nn2-c2ccccc2)c1 | 17.7 µM | 78.6 µM | 99.8 µM | 60.5 µM | 100 µM | 34.9 µM | 77.4 µM | 49 µM | 85.2 µM | 29.2 µM | 84.3 µM | 34.9 µM | 70 µM | 25.2 µM | 82.8 µM | 11.1 µM | 78.2 µM | 40.6 µM | 100 µM | <32% | Activity (MCF7): <32%; Activity (NCI-H460): <32%
3 | COc1ccc(OC)c(-c2cc(-c3ccccc3)nn2-c2ccc(S(N)(=O)=O)cc2)c1 | 12.3 µM | 32.9 µM | 73 µM | 13.9 µM | 28.8 µM | 13 µM | 29.8 µM | 13.6 µM | 43.7 µM | 15 µM | 31.1 µM | 15.3 µM | 40.8 µM | 11.9 µM | 27.5 µM | 6.94 µM | 68.5 µM | 31.4 µM | 40.7 µM | <32% | Activity (MCF7): <32%; Activity (NCI-H460): <32%
4 | COc1ccc(OC)c(-c2cc(-c3ccc(Cl)cc3)nn2-c2ccc(S(N)(=O)=O)cc2)c1 | 11.5 µM | 34 µM | 74.7 µM | 7.86 µM | 20.8 µM | 13.5 µM | 39.5 µM | 16.9 µM | 50.8 µM | 16.2 µM | 37.2 µM | 12.8 µM | 36.7 µM | 0.95 µM | 38.4 µM | 4.44 µM | 52.1 µM | 10.9 µM | 44.3 µM | <32% | Activity (MCF7): <32%; Activity (NCI-H460): <32%
5 | COc1ccc(OC)c(-c2cc(-c3ccccc3)nn2-c2ccc(S(=O)(=O)NC(C)=O)cc2)c1 | 9.7 µM | 44.5 µM | 77.1 µM | 12 µM | 28.8 µM | 13.3 µM | 37.6 µM | 13.3 µM | 50.7 µM | 18.1 µM | 42.6 µM | 15.4 µM | 36.2 µM | 3.74 µM | 18.2 µM | 7.4 µM | 53.4 µM | 15.3 µM | 49.8 µM | <32% | Activity (MCF7): <32%; Activity (NCI-H460): <32%
6 | COc1ccc(OC)c(-c2cc(-c3ccc(Cl)cc3)nn2-c2ccc(S(=O)(=O)NC(C)=O)cc2)c1 | 25.4 µM | 70.2 µM | 79.2 µM | 3.61 µM | 21.9 µM | 17.7 µM | 53.2 µM | 23.4 µM | 67.1 µM | 19.4 µM | 50 µM | 10.7 µM | 28.7 µM | 8.18 µM | 36 µM | 7.45 µM | 50.1 µM | 17.7 µM | 52.6 µM | <32% | Activity (MCF7): <32%; Activity (NCI-H460): <32%
7 | Oc1ccc(O)c(-c2cc(-c3ccccc3)nn2-c2ccccc2)c1 | 17.1 µM | 75.7 µM | 91.3 µM | 16.7 µM | 100 µM | 22.6 µM | 67.3 µM | 37.6 µM | 75.2 µM | 18.6 µM | 71.2 µM | 22.6 µM | 63.9 µM | 28.5 µM | 77.4 µM | 35.7 µM | 100 µM | 26.9 µM | 63.6 µM | <32% | Activity (MCF7): <32%; Activity (NCI-H460): <32%
